In PMC3201797 (Bioorganic & medicinal chemistry letters, 2010):
One block for each substance: values may come before it.

Experiments:
Assay type in all cases: biochemical
[1] = target: T1, prostate-specific membrane antigen (PSMA) (Homo sapiens, UniProt Q04609); experiment: PSMA enzyme inhibition assay with purified PSMA
[2] = target: T1, prostate-specific membrane antigen (PSMA); experiment: PSMA enzyme inhibition assay
[3] = target: T1, prostate-specific membrane antigen (PSMA); experiment: PSMA enzyme inhibition assay with purified PSMA; remark: listed apart in the source

T1 sequence (Q04609 whole entry): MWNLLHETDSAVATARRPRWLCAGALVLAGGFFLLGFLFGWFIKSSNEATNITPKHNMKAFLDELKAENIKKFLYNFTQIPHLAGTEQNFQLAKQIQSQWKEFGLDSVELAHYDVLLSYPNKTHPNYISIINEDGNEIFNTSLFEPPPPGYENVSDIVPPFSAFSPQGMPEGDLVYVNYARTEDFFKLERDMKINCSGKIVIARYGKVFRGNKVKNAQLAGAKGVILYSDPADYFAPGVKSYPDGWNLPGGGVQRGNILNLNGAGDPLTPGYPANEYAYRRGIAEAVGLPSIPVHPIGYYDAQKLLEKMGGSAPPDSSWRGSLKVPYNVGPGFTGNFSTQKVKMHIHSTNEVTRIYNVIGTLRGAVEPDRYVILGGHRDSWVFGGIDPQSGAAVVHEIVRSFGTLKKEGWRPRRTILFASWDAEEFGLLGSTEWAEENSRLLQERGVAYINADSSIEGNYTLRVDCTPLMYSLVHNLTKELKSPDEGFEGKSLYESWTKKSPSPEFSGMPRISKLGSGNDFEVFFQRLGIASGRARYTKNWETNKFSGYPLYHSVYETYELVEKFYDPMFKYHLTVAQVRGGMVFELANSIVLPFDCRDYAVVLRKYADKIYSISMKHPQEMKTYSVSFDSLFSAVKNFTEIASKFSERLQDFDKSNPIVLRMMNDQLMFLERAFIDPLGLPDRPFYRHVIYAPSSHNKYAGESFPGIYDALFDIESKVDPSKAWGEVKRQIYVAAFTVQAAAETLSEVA

IC50 [1]: 144 nM
Substance: CTT-54.2

IC50 [2]: 6100 nM
Substance: Cy5.5 free acid

IC50 [3]: 0.55 nM
Substance: Cy5.5-CTT-54.2
